In patent US9796733B2, “Imidazo-pyrazine derivatives useful as soluble guanylate cyclase activators” (Merck Sharp & Dohme Corp., priority 2014, dated 2017):

Columns and labels:
[1] = tested on: Spontaneously hypertensive rats (SHR); experiment: Acute efficacy in spontaneously hypertensive rats (SHR): telemetry blood pressure lowering after a single oral dose; type: in vivo, rat
How it was run: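 Values are the maximum peak fall in systolic pressure after one oral dose (mpk), computed hourly against baseline from a vehicle dose given the day before. Rats were conscious, male, spontaneously hypertensive, with femoral-aortic telemetry recording 30 s every 10 min, 14 days post-surgery.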

[2] = target: T1, sGC α1/β1 heterodimer (Homo sapiens, UniProt Q02108+Q02153); experiment: Cell-based sGC functional assay (CASA assay): cGMP generation in CHO-K1/sGC cells, HTRF detection; details: for Emax: CHO-K1, percent activation relative to standard Compound A in CHO-K1/sGC cells, read-out: % Act.; for EC50: inflection point (IP) of cGMP generation in CHO-K1/sGC cells, 4P fit, activity expressed as percentage of Compound A
T1 construct: expressed in transfected cells; host or cells: CHO-K1 (clone #7, CHO-K1/sGC)
T1 sequence (Q02108 1-690): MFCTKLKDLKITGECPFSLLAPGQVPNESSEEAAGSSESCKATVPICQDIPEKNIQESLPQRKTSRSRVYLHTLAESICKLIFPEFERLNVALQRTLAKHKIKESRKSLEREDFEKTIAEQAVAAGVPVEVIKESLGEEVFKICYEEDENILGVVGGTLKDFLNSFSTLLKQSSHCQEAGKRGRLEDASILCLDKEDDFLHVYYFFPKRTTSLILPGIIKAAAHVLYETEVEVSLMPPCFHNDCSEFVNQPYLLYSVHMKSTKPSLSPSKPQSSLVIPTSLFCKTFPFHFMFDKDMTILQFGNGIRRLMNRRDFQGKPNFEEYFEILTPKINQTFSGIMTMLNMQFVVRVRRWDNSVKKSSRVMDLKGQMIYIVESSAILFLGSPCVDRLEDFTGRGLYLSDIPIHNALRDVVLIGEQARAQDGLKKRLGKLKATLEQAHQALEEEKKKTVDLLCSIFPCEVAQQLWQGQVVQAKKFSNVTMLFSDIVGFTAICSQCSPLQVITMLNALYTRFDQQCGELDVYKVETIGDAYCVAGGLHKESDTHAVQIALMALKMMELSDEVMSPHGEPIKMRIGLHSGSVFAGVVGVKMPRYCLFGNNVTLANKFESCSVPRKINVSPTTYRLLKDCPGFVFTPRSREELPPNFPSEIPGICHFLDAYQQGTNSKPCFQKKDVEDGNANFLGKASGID
T1 sequence (Q02153 1-619): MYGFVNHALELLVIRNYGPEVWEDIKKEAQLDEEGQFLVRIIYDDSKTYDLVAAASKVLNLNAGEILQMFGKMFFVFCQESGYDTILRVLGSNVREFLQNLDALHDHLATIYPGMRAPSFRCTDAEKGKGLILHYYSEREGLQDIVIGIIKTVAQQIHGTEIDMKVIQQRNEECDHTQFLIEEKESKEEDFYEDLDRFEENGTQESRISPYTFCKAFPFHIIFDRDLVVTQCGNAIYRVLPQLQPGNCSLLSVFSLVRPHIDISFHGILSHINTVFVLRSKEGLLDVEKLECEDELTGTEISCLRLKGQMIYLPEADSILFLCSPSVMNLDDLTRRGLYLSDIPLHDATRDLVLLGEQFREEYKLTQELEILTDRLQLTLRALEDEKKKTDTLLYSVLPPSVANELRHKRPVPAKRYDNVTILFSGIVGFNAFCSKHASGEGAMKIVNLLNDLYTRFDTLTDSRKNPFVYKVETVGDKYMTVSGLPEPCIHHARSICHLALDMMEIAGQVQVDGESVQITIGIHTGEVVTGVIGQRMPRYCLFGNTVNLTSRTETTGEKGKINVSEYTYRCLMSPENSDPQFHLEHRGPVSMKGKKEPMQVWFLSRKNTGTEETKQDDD
How it was run: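 cGMP was quantified by HTRF after 1 hr, 37° C exposure of thawed CHO-K1 cells expressing sGC α1/β1 to compound, with or without 1 μM DETA-NO. IBMX (0.5 mM) blocked cGMP breakdown, and DMSO was 2.5% final. Percent of standard Compound A's maximal cGMP was fitted (4P) for inflection point.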

Structure (SMILES)	Emax [2]	EC50 [2]	Maximum peak decrease of systolic blood pressure (SBP) in SHR, Cat. ([1]; P.O. 2.0 mpk)	Maximum peak decrease of systolic blood pressure (SBP) in SHR, Cat. ([1]; P.O. 1.0 mpk)	Maximum peak decrease of systolic blood pressure (SBP) in SHR, Cat. ([1]; P.O. 3.0 mpk)	Maximum peak decrease of systolic blood pressure (SBP) in SHR, Cat. ([1]; P.O. 0.3 mpk)
Nc1nc(-c2cn3ccnc3c(CCC(F)(F)F)n2)nc2c1C(c1ccc(F)c(F)c1)(C1CC1)C(=O)N2 (stereo not drawn) [Example 318A, 4-amino-5-cyclopropyl-5-(3,4-difluorophenyl)-2-(8-(3,3,3-trifluoropropyl)imidazo[1,2-a]pyrazin-6-yl)-5H-pyrrolo[2,3-d]pyrimidin-6(7H)-one]	127%	2180 nM	A (Category A=SBP in SHRs<20 mmHg)	–	–	–
CCCc1nc(-c2nc(N)c3c(n2)NC(=O)C3(c2ccc(Cl)c(F)c2)C2CC2)cn2ccnc12 (stereo not drawn) [Example 327A, 4-amino-5-(4-chloro-3-fluorophenyl)-5-cyclopropyl-2-(8-propylimidazo[1,2-a]pyrazin-6-yl)-5H-pyrrolo[2,3-d]pyrimidin-6(7H)-one]	112%	134 nM	–	A (Category A=SBP in SHRs<20 mmHg)	–	–
CCCCc1nc(-c2nc(N)c3c(n2)NC(=O)C3(c2ccc(Cl)cc2)C2CC2)cn2ccnc12 (stereo not drawn) [Example 332B, 4-amino-2-(8-butylimidazo[1,2-a]pyrazin-6-yl)-5-(4-chlorophenyl)-5-cyclopropyl-5H-pyrrolo[2,3-d]pyrimidin-6(7H)-one]	141%	30 nM	–	–	–	B (Category B=SBP in SHRs 20-40 mmHg)
CCCc1nc(-c2nc(N)c3c(n2)NC(=O)C3(c2ccc(F)c(F)c2)C2CC2)cn2ccnc12 (stereo not drawn) [Example 334A, 4-amino-5-cyclopropyl-5-(3,4-difluorophenyl)-2-(8-propylimidazo[1,2-a]pyrazin-6-yl)-5H-pyrrolo[2,3-d]pyrimidin-6(7H)-one]	111%	278 nM	–	–	A (Category A=SBP in SHRs<20 mmHg)	–
CCCCc1nc(-c2nc(N)c3c(n2)NC(=O)C3(c2ccc(Cl)cn2)C2CC2)cn2ccnc12 (stereo not drawn) [Example 336B, 4-amino-2-(8-butylimidazo[1,2-a]pyrazin-6-yl)-5-(5-chloropyridin-2-yl)-5-cyclopropyl-5H-pyrrolo[2,3-d]pyrimidin-6(7H)-one]	131%	22 nM	–	–	–	B (Category B=SBP in SHRs 20-40 mmHg)
Nc1nc(-c2cn3ccnc3c(CCCC(F)(F)F)n2)nc2c1C(c1ccc(Cl)cc1F)(C1CC1)C(=O)N2 (stereo not drawn) [Example 339A, 4-amino-5-(4-chloro-2-fluorophenyl)-5-cyclopropyl-2-(8-(4,4,4-trifluorobutyl)imidazo[1,2-a]pyrazin-6-yl)-5H-pyrrolo[2,3-d]pyrimidin-6(7H)-one]	325%	122 nM	–	–	–	B (Category B=SBP in SHRs 20-40 mmHg)
CCCCc1nc(-c2nc(N)c3c(n2)NC(=O)C3(c2ccc(OC(F)(F)F)cc2)C2CC2)cn2ccnc12 (stereo not drawn) [Example 346A]	132%	65 nM	–	B (Category B=SBP in SHRs 20-40 mmHg)	–	–
Nc1nc(-c2cn3ccnc3c(CCCC(F)(F)F)n2)nc2c1C(c1cncc(F)c1)(C1CC1)C(=O)N2 (stereo not drawn) [Example 356B, 4-amino-5-cyclopropyl-5-(5-fluoropyridin-3-yl)-2-(8-(4,4,4-trifluorobutyl)imidazo[1,2-a]pyrazin-6-yl)-5H-pyrrolo[2,3-d]pyrimidin-6(7H)-one]	108%	487 nM	–	–	A (Category A=SBP in SHRs<20 mmHg)	–

Continued, in another order:

Emax [2]	EC50 [2]	Structure (SMILES)	Maximum peak decrease of systolic blood pressure (SBP) in SHR, Cat. ([1]; P.O. 2.0 mpk)	Maximum peak decrease of systolic blood pressure (SBP) in SHR, Cat. ([1]; P.O. 1.0 mpk)	Maximum peak decrease of systolic blood pressure (SBP) in SHR, Cat. ([1]; P.O. 3.0 mpk)	Maximum peak decrease of systolic blood pressure (SBP) in SHR, Cat. ([1]; P.O. 0.3 mpk)
106%	1040 nM	Nc1nc(-c2cn3ccnc3c(CCC(F)(F)F)n2)nc2c1C(c1ccc(OC(F)(F)F)cc1)(C1CC1)C(=O)N2 (stereo not drawn) [Example 328A, 4-amino-5-cyclopropyl-5-(4-(trifluoromethoxy)phenyl)-2-(8-(3,3,3-trifluoropropyl)imidazo[1,2-a]pyrazin-6-yl)-5H-pyrrolo[2,3-d]pyrimidin-6(7H)-one]	–	–	A (Category A=SBP in SHRs<20 mmHg)	–
93%	16 nM	CCCCc1nc(-c2nc(N)c3c(n2)NC(=O)C3(c2ccc(Cl)c(F)c2)C2CC2)cn2ccnc12 (stereo not drawn) [Example 329A, 4-amino-2-(8-butylimidazo[1,2-a]pyrazin-6-yl)-5-(4-chloro-3-fluorophenyl)-5-cyclopropyl-5H-pyrrolo[2,3-d]pyrimidin-6(7H)-one]	–	–	–	B (Category B=SBP in SHRs 20-40 mmHg)
142%	22 nM	CCCCc1nc(-c2nc(N)c3c(n2)NC(=O)C3(c2ccc(F)c(F)c2)C2CC2)cn2ccnc12 (stereo not drawn) [Example 330A, 4-amino-2-(8-butylimidazo[1,2-a]pyrazin-6-yl)-5-cyclopropyl-5-(3,4-difluorophenyl)-5H-pyrrolo[2,3-d]pyrimidin-6(7H)-one]	–	–	–	B (Category B=SBP in SHRs 20-40 mmHg)
140%	303 nM	CC(C)Cc1nc(-c2nc(N)c3c(n2)NC(=O)C3(c2ccc(F)c(F)c2)C2CC2)cn2ccnc12 (stereo not drawn) [Example 335A, 4-amino-5-cyclopropyl-5-(3,4-difluorophenyl)-2-(8-isobutylimidazo[1,2-a]pyrazin-6-yl)-5H-pyrrolo[2,3-d]pyrimidin-6(7H)-one]	–	–	B (Category B=SBP in SHRs 20-40 mmHg)	–
158%	178 nM	Nc1nc(-c2cn3ccnc3c(CCC(F)(F)F)n2)nc2c1C(c1ccc(Cl)cc1F)(C1CC1)C(=O)N2 (stereo not drawn) [Example 338A, 4-amino-5-(4-chloro-2-fluorophenyl)-5-cyclopropyl-2-(8-(3,3,3-trifluoropropyl)imidazo[1,2-a]pyrazin-6-yl)-5H-pyrrolo[2,3-d]pyrimidin-6(7H)-one]	B (Category B=SBP in SHRs 20-40 mmHg)	–	–	–
107%	131 nM	Nc1nc(-c2cn3ccnc3c(CCCC(F)(F)F)n2)nc2c1C(c1ccc(OC(F)(F)F)cc1)(C1CC1)C(=O)N2 (stereo not drawn) [Example 347A, 4-amino-5-cyclopropyl-2-(8-(4,4,4-trifluorobutyl)imidazo[1,2-a]pyrazin-6-yl)-5-(4-(trifluoromethoxy)phenyl)-5H-pyrrolo[2,3-d]pyrimidin-6(7H)-one]	–	B (Category B=SBP in SHRs 20-40 mmHg)	–	–
107%	213 nM	Nc1nc(-c2cn3ccnc3c(CCC(F)(F)C(F)(F)F)n2)nc2c1C(c1ncc(Cl)cn1)(C1CC1)C(=O)N2 (stereo not drawn) [Example 349A, 4-amino-5-(5-chloropyrimidin-2-yl)-5-cyclopropyl-2-(8-(3,3,4,4,4-pentafluorobutyl)imidazo[1,2-a]pyrazin-6-yl)-5H-pyrrolo[2,3-d]pyrimidin-6(7H)-one]	B (Category B=SBP in SHRs 20-40 mmHg)	–	–	–
168%	1030 nM	Nc1nc(-c2cn3ccnc3c(CCC(F)(F)C(F)(F)F)n2)nc2c1C(c1cncc(F)c1)(C1CC1)C(=O)N2 (stereo not drawn) [Example 353B, 4-amino-5-cyclopropyl-5-(5-fluoropyridin-3-yl)-2-(8-(3,3,4,4,4-pentafluorobutyl)imidazo[1,2-a]pyrazin-6-yl)-5H-pyrrolo[2,3-d]pyrimidin-6(7H)-one]	–	–	A (Category A=SBP in SHRs<20 mmHg)	–
